# From PMC12505664, “Enflicoxib for the long-term management of canine osteoarthritis—External validation of a population pharmacokinetic model in dogs with osteoarthritis” (Frontiers in Veterinary Science, 2025)
# Where two headings read alike, the source gives them in different places.
# Legend:
# [1] = tested on: dogs with OA; assay: Safety assessment in the field clinical study (hematology, biochemistry, urine, adverse events); assay type: in vivo, client-owned dogs with OA; conditions: 6 months weekly treatment
# Description: To assess safety, blood samples for hematology and biochemistry, as well as urine samples, were repeated on days 44 and 189. The following hematological and biochemical parameters were determined: red blood cell (RBC) count, white blood cell (WBC) total and differential count, platelet (thrombocyte) count and estimate, hematocrit, hemoglobin, and reticulocytes. Amylase, albumin, alkaline phosphatase, alanine-aminotransferase (ALT), aspartate-aminotransferase (AST), calcium, cholesterol, creatinine, creatine kinase, globulin, glucose, γ-Glutamyltransferase (γ-GT), magnesium, phosphorus, potassium, sodium, total bilirubin, total protein, and urea.
# Urine samples were analyzed for blood/erythrocytes/hemoglobin, glucose, ketone bodies, protein, leukocytes, nitrite, specific weight, pH value, bilirubin, and urobilinogen.
# Safety was also assessed by recording any adverse events (AEs) that occurred during the study, regardless of their nature, severity, or whether they were product-related or not.
# [2] = overdose study, repeated weekly administrations, Beagle dogs; cited from earlier work
# [3] = parameters: method as in PMID 34160092; conditions: cited from earlier work
# [4] = tested on: canine osteoarthritis; parameters: method as in Salichs et al., Vet Rec. 2022; conditions: ref Salichs et al., Vet Rec. 2022, cited from earlier work; for Number of animals presenting AEs (%): Emesis or nausea: AEs classified A, B or O; for Emesis and nausea: Number of events: AEs related to the GI system
# [5] = parameters: method as in PMID 34854245; conditions: popPK model, cited from earlier work
# [6] = Maximum a posteriori Bayesian (MAPB) estimation of individual PK parameters in dogs with OA; assay type: in vivo
# From the text: As a similar PK behavior between populations was concluded, the same popPK model could be used, and a Bayesian approach was used for the determination of individual enflicoxib and the pyrazol metabolite exposure in osteoarthritic animals.
# A maximum a posteriori Bayesian (MAPB) estimation using the post hoc subroutine in NONMEM was used to provide the individual PK parameters in osteoarthritic dogs.
# MAPB estimation applied likelihood maximization in the form of minimizing the objective function (minus 2 log likelihood), to estimate individual PK parameters of each dog with OA. In this analysis, the MAPB estimation incorporated both a priori PK information, that is, the established PK model of enflicoxib and the pyrazol metabolite in healthy Beagle dogs, and a posteriori PK data, which corresponds to PK data from osteoarthritic dogs. The individual PK parameters along with individual predicted PK profiles for each dog treated with enflicoxib were calculated by fitting the animal PK dataset, which includes dosing, sampling times, parent and metabolite levels, and covariate information, to the established population enflicoxib and the pyrazol metabolite PK model in healthy Beagle dogs.
# The maximum a posteriori Bayesian (MAPB) estimation was applied to provide the most likely individual PK profile for each dog with OA, using the “POSTHOC” subroutine and $ESTIMATION command set to MAXEVAL=0 in NONMEM.
# Individual PK parameters and individual PK profiles of enflicoxib and the pyrazol metabolite were estimated for each dog.
# Finally, the Bayesian approach enabled the estimation of the main individual PK parameters of enflicoxib and the pyrazol metabolite. Using these individual PK parameters, predicted profiles for each animal were estimated, allowing the calculation of the derived exposure parameters, such as Cmax, Cmin, AUCτ, and T1/2 in all treated dogs. The distribution and the mean estimates of enflicoxib and the pyrazol metabolite PK parameters at selected time points are depicted in Supplementary Figures S3, S4, respectively.
# [7] = interindividual variability as % CV
# [8] = parent, typical value at 9.9 kg
# [9] = mean across weeks, Bayesian predicted profiles
compound,measurement,setting,value
NS(=O)(=O)c1ccc(N2N=C(C(F)(F)F)CC2c2ccc(F)cc2F)cc1 (centres unmarked) [Enflicoxib],Incidence and type of adverse events over time,[1],no tendency to increase over time
same,Hematological and biochemical parameters,[1]; days 44 and 189,generally within the reference ranges
same,Dose proportionality of pharmacokinetics,[2],dose-proportional pharmacokinetics
same,mean terminal elimination half-life (t 1/2),"[3]; Beagle dogs, oral",20 h
same,Effect of food on absorption,[3],food increases absorption
same,Number of animals presenting AEs (%): Emesis or nausea,[4]; Enflicoxib 2 mg/kg group n=60,3 (5.0)
same,Emesis and nausea: Number of events,[4]; Enflicoxib 2 mg/kg group n=60,3
same,Diarrhoea / pasty stools: Duration range,[4]; Enflicoxib 2 mg/kg group n=60,2 to 8 days
same,Diarrhoea / pasty stools: Mean duration,[4]; Enflicoxib 2 mg/kg group n=60,5.6 days
same,Diarrhoea / pasty stools: Number of events,[4]; Enflicoxib 2 mg/kg group n=60,3
same,Diarrhoea / pasty stools: Treatment needed,[4]; Enflicoxib 2 mg/kg group n=60,1
same,Emesis and nausea: Mean duration,[4]; Enflicoxib 2 mg/kg group n=60,3 days
same,Emesis and nausea: Treatment needed,[4]; Enflicoxib 2 mg/kg group n=60,0
same,Number of animals presenting AEs (%): Abdominal pain,[4]; Enflicoxib 2 mg/kg group n=60,0
same,Number of animals presenting AEs (%): Acute renal failure,[4]; Enflicoxib 2 mg/kg group n=60,0
same,Number of animals presenting AEs (%): Apathy,[4]; Enflicoxib 2 mg/kg group n=60,1 (1.7)
same,Number of animals presenting AEs (%): Constipation,[4]; Enflicoxib 2 mg/kg group n=60,0
same,Number of animals presenting AEs (%): Diarrhoea or pasty stools,[4]; Enflicoxib 2 mg/kg group n=60,4 (6.7)
same,Number of animals presenting AEs (%): Increased salivation,[4]; Enflicoxib 2 mg/kg group n=60,0
same,Number of animals presenting AEs (%): Polydipsia,[4]; Enflicoxib 2 mg/kg group n=60,0
same,Number of animals presenting AEs (%): Total,[4]; Enflicoxib 2 mg/kg group n=60,6 (10%)
same,Number of animals presenting AEs (%): Weight loss,[4]; Enflicoxib 2 mg/kg group n=60,1 (1.7)
same,Emesis and nausea: Duration range,"[4]; Enflicoxib 2 mg/kg group n=60, upper end one animal",1 to 6 days
same,Number of animals presenting AEs (%): Emesis or nausea,[4]; Enflicoxib 4 mg/kg group n=61,7 (11.5)
same,Emesis and nausea: Number of events,[4]; Enflicoxib 4 mg/kg group n=61,9
same,Diarrhoea / pasty stools: Duration range,[4]; Enflicoxib 4 mg/kg group n=61,1 to 4 days
same,Diarrhoea / pasty stools: Mean duration,[4]; Enflicoxib 4 mg/kg group n=61,3 days
same,Diarrhoea / pasty stools: Number of events,[4]; Enflicoxib 4 mg/kg group n=61,7
same,Diarrhoea / pasty stools: Treatment needed,[4]; Enflicoxib 4 mg/kg group n=61,3
same,Emesis and nausea: Duration range,[4]; Enflicoxib 4 mg/kg group n=61,1 to 3 days
same,Emesis and nausea: Mean duration,[4]; Enflicoxib 4 mg/kg group n=61,1.4 days
same,Emesis and nausea: Treatment needed,[4]; Enflicoxib 4 mg/kg group n=61,2
same,Number of animals presenting AEs (%): Abdominal pain,[4]; Enflicoxib 4 mg/kg group n=61,0
same,Number of animals presenting AEs (%): Acute renal failure,[4]; Enflicoxib 4 mg/kg group n=61,0
same,Number of animals presenting AEs (%): Apathy,[4]; Enflicoxib 4 mg/kg group n=61,2 (3.3)
same,Number of animals presenting AEs (%): Constipation,[4]; Enflicoxib 4 mg/kg group n=61,0
same,Number of animals presenting AEs (%): Diarrhoea or pasty stools,[4]; Enflicoxib 4 mg/kg group n=61,5 (8.2)
same,Number of animals presenting AEs (%): Increased salivation,[4]; Enflicoxib 4 mg/kg group n=61,1 (1.6)
same,Number of animals presenting AEs (%): Polydipsia,[4]; Enflicoxib 4 mg/kg group n=61,1 (1.6)
same,Number of animals presenting AEs (%): Total,[4]; Enflicoxib 4 mg/kg group n=61,12 (19.7)
same,Number of animals presenting AEs (%): Weight loss,[4]; Enflicoxib 4 mg/kg group n=61,0
same,IIV of CL2/F (apparent clearance of irreversible biotransformation to pyrazol metabolite),[5]; [7],49%
same,IIV of Lag Time (Tlag),[5]; [7],68%
same,IIV of V/F (apparent volume of distribution in the central compartment),[5]; [7],94%
same,IIV of absorption rate (ka),[5]; [7],101%
same,Residual variability,"[5]; log error model, % CV",34%
same,"Absorption rate (ka), estimate",[5]; parent,0.220 hr – 1
same,"Lag Time (Tlag), estimate",[5]; parent,0.249 h
same,"CL1/F = θ5·(WGT/9.9)^0.75, θ5 estimate (apparent clearance to other elimination pathways)",[5]; [8],0.193 L/h
same,"CL2/F = θ6·(WGT/9.9)^0.75, θ6 estimate (apparent clearance of irreversible biotransformation to pyrazol metabolite)",[5]; [8],0.520 L/h
same,"V/F = θ4·(WGT/9.9)^1.0, θ4 estimate (apparent volume of distribution, central compartment)",[5]; [8],6.59 L
same,Time-dependent pharmacokinetics or over-accumulation,[6]; 6 months of weekly treatment,no evidence of time-dependent pharmacokinetics or over-accumulation
same,AUCτ,[6]; [9],"3,810 ng/mL·d"
same,Cmin,[6]; [9],~ 185 ng/mL
same,Cmax,"[6]; mean, all weeks of weekly treatment, Bayesian predicted profiles","≈ 1,173 ng/mL"
same,Time to PK steady-state,[6]; weekly treatment,4 weeks
